Experimental data reported in the supplement of paper PMC10331698.
± gives the standard deviation of the averaged measurements.

Assays:
Test in all cases: level (log10 ratio to DMSO vehicle control); higher = higher biomarker level / cell amount than vehicle control
Conditions in all cases: in DMSO
[1] = compound: FC(F)(F)C(F)(F)C(F)(F)C(F)(F)C(F)(F)CCI [1-Iodo-1H,1H,2H,2H-perfluoroheptane]
Procedure: (§1)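 BioMAP Diversity Plus panel of 12 human primary cell co-culture systems (3C, 4H, LPS, SAg, BT, BF4T, BE3C, CASM3C, HDF3CGF, KF3CT, MyoF, Mphg). Compounds were added 1 h before stimulation and left for 24 h (MyoF 48 h; BT 72 h for soluble read-outs or 6 d for IgG). Biomarkers were read by ELISA, cytotoxicity by SRB, PBMC viability and proliferation by Alamar Blue. Each well value was divided by the mean of 8 DMSO control wells on the same plate and log10 transformed; duplicate blinded samples were tested at 4 concentrations.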

[2] = compound: C=C(C)C(=O)OCCC(F)(F)C(F)(F)C(F)(F)C(F)(F)C(F)(C(F)(F)F)C(F)(F)F [(Perfluoro-5-methylhexyl)ethyl 2-methylprop-2-enoate]
Procedure: as §1

[3] = compound: O=C(O)C(F)(F)C(F)(F)C(F)F [4H-Perfluorobutanoic acid]
Procedure: as §1

[4] = compound: O=C(O)C(F)(F)OC(F)(F)C(F)(F)OC(F)(F)C(=O)O [Perfluoro-3,6-dioxaoctane-1,8-dioic acid]
Procedure: as §1

[5] = compound: FC(F)C(F)(F)COCC1CO1 [((2,2,3,3-Tetrafluoropropoxy)methyl)oxirane]
Procedure: as §1

Perfluoroheptanoic acid = compound: O=C(O)C(F)(F)C(F)(F)C(F)(F)C(F)(F)C(F)(F)C(F)(F)F [Perfluoroheptanoic acid]
Procedure: as §1

Heptafluorobutyramide = compound: NC(=O)C(F)(F)C(F)(F)C(F)(F)F [Heptafluorobutyramide]
Procedure: as §1

Test System | level (log10) ([1]; 6700 nM) | level (log10) ([1]; 20000 nM) | level (log10) ([1]; 60000 nM) | level (log10) ([2]; 6700 nM) | level (log10) ([2]; 20000 nM) | level (log10) ([3]; 6700 nM) | level (log10) ([3]; 20000 nM) | level (log10) ([3]; 60000 nM) | level (log10) ([4]; 6700 nM) | level (log10) ([4]; 20000 nM) | level (log10) ([4]; 60000 nM) | level (log10) ([5]; 6700 nM) | level (log10) ([5]; 20000 nM) | level (log10) ([5]; 60000 nM) | level (log10) (Perfluoroheptanoic acid; 6700 nM) | level (log10) (Perfluoroheptanoic acid; 20000 nM) | level (log10) (Perfluoroheptanoic acid; 60000 nM) | level (log10) (Heptafluorobutyramide; 6700 nM) | level (log10) (Heptafluorobutyramide; 20000 nM) | level (log10) (Heptafluorobutyramide; 60000 nM)
BF4T:CXCL8/IL-8 | 0.0065 ± 0.016 | 0.0295 ± 0.018 | 0.0605 ± 0.011 | 0.067 ± 0.037 | 0.035 ± 0.027 | 0.0385 ± 0.0078 | 0.046 ± 0.024 | 0.0445 ± 0.04 | -0.011 ± 0.023 | -0.0305 ± 0.0064 | -0.0025 ± 0.037 | 0.0165 ± 0.013 | 0.003 ± 0.0042 | 0.0255 ± 0.021 | 0.017 ± 0.028 | 0.0155 ± 0.013 | 0.0145 ± 0.036 | 0.032 ± 0.061 | 0.024 ± 0.057 | 0.0155 ± 0.012
LPS:CD62E/E-Selectin | 0.0045 ± 0.012 | 0.004 ± 0.0042 | -0.0005 ± 0.0064 | 0.006 ± 0.0099 | 0.0095 ± 0.012 | -0.006 ± 0.013 | 0.002 ± 0.0028 | 0.0075 ± 0.011 | 0.019 ± 0.013 | -0.0035 ± 0.0092 | -0.003 ± 0.0028 | 0.012 ± 0.02 | 0.0055 ± 0.033 | 0.0145 ± 0.033 | -0.009 ± 0.0028 | 0 ± 0.017 | 0.01 | -0.0065 ± 0.022 | -0.0195 ± 0.016 | -0.0365 ± 0.035
BF4T:MMP-9 | 0.01 ± 0.0014 | 0.03 ± 0.0014 | 0.065 ± 0.017 | -0.036 ± 0.05 | -0.007 ± 0.038 | -0.018 ± 0.028 | -0.0245 ± 0.036 | -0.008 ± 0.038 | -0.021 ± 0.0057 | -0.0135 ± 0.005 | 0.02 ± 0.017 | 0.0055 ± 0.005 | -0.01 ± 0.0042 | 0.0065 ± 0.013 | 0.0145 ± 0.016 | 0.0445 ± 0.022 | 0.103 ± 0.054 | 0.014 ± 0.017 | 0.0035 ± 0.039 | 0.011 ± 0.04
BF4T:Keratin 8/18 | 0.0135 ± 0.022 | -0.0085 ± 0.005 | -0.015 ± 0.0028 | -0.024 | -0.0115 ± 0.0078 | -0.027 ± 0.027 | -0.0025 ± 0.013 | 0.0035 ± 0.021 | -0.0075 ± 0.022 | -0.008 ± 0.0014 | 0.0025 ± 0.019 | 0.0005 ± 0.005 | -0.008 ± 0.014 | -0.0025 ± 0.042 | -0.0285 ± 0.0092 | -0.018 ± 0.0057 | 0.0045 ± 0.026 | -0.0015 ± 0.03 | 0.0065 ± 0.026 | 0.0055 ± 0.057
BF4T:SRB | -0.003 ± 0.0014 | -0.0035 ± 0.00071 | 0.006 ± 0.016 | -0.016 ± 0.011 | -0.007 ± 0.025 | 0.0005 ± 0.0021 | -0.008 ± 0.0057 | -0.006 ± 0.0042 | -0.0115 ± 0.00071 | -0.014 ± 0.0014 | 0.003 ± 0.018 | -0.0075 ± 0.0035 | -0.006 ± 0.0057 | 0.002 ± 0.017 | -0.0085 ± 0.00071 | -0.0115 ± 0.00071 | -0.0035 ± 0.018 | -0.01 ± 0.0085 | -0.0075 ± 0.00071 | -0.005 ± 0.0099
SAg:CCL2/MCP-1 | -0.005 ± 0.0099 | -0.0175 ± 0.0035 | -0.006 ± 0.038 | -0.014 ± 0.018 | 0.0065 ± 0.033 | -0.011 ± 0.038 | -0.0085 ± 0.04 | -0.0065 ± 0.081 | 0.0065 ± 0.0035 | -0.0145 ± 0.00071 | -0.0095 ± 0.0064 | -0.0305 ± 0.046 | -0.0185 ± 0.016 | -0.014 ± 0.011 | -0.013 ± 0.0085 | 0.0215 ± 0.011 | 0.0215 ± 0.013 | -0.0125 ± 0.015 | -0.011 ± 0.0099 | 0.0085 ± 0.037
LPS:M-CSF | -0.0145 ± 0.0092 | -0.0185 ± 0.0035 | -0.031 ± 0.017 | 0.022 ± 0.02 | 0.006 ± 0.0042 | -0.001 ± 0.042 | -0.007 ± 0.014 | -0.003 ± 0.035 | 0.0035 ± 0.005 | -0.002 ± 0.0028 | 0.021 | 0.0075 ± 0.011 | 0.009 ± 0.017 | -0.0155 ± 0.036 | -0.028 ± 0.024 | -0.008 ± 0.018 | -0.007 ± 0.038 | -0.003 ± 0.016 | -0.006 ± 0.0014 | -0.006 ± 0.0057
BE3C:CXCL11/I-TAC | 0.0075 ± 0.013 | 0.0005 ± 0.016 | 0.0005 ± 0.018 | 0.005 ± 0.0099 | 0.0105 ± 0.0092 | -0.0015 ± 0.0064 | 0.008 ± 0.014 | 0.031 ± 0.011 | -0.0145 ± 0.0021 | -0.015 ± 0.0042 | -0.006 ± 0.013 | 0.0005 ± 0.054 | -0.008 ± 0.033 | 0.0225 ± 0.037 | 0.0065 ± 0.015 | -0.011 ± 0.0042 | -0.003 ± 0.0042 | -0.0035 ± 0.0064 | 0.005 ± 0.0042 | -0.0015 ± 0.00071
